Assay results taken from patent US20090306032A1, “Use of solid lipid nanoparticles Comprising Cholesteryl Propionate and/or Cholesteryl Butyrate” (priority 2005, published 2009).
pIC50: −log10 of the molar value.

Key:
[1] = test system: adhesion of polymorphonuclear cells to HUVEC cells; test: Adhesion assay, PMN to HUVEC, IL-1β stimulus; format: cell-based; details: Homo sapiens, 4 h, read-out: inhibition of the adhesion
Experimental: (§1) Human umbilical vein endothelial cells (HUVEC cells) were suitably treated, grown to confluence in 24 well plates, washed and maintained for one day in M199 medium supplemented with 10% BCS (Bovine Calf Serum).
(§2) Polymorphonuclear cells (PMN) were prepared from citrated venous blood obtained from healthy volunteers. Polymorphonuclear cells (PMN), at the concentration of 10^7 cells/ml were labeled with fluorescein diacetate (5 μg/ml) for 30 minutes at 37° C., washed with BSS and plated at the concentration of 10^6 cells per well in a final volume of 0.25 ml of BSS.
(§3) The antiadhesive effects of cholesteryl butyrate nanoparticles prepared in example 1 and of sodium butyrate were measured by an adhesion assay. In detail, human polymorphonuclear cells and HUVEC endothelial cells were incubated with increasing concentrations of cholesteryl butyrate or sodium butyrate nanoparticles in presence of a substance, PAF or IL-1β, which induces adhesion of PMN cells to endothelial HUVEC cells. Adhesion was then assessed by fluorescence microimaging.
b) The effect of cholesteryl butyrate nanoparticles prepared in example 1 or of sodium butyrate on adhesion of polymorphonuclear cells to HUVEC cells was also examined in presence of the adhesion stimulus provided by IL-1β (0.05 ng/ml). […]

[2] = test system: adhesion of polymorphonuclear cells to HUVEC cells; test: Adhesion assay, PMN to HUVEC, PAF stimulus; format: cell-based; details: Homo sapiens, 5 min
Experimental: as §1, §2, §3
a) The effect of cholesteryl butyrate nanoparticles prepared as in example 1, or of sodium butyrate, on adhesion of polymorphonuclear cells to HUVEC cells was examined in presence of the adhesion stimulus provided by PAF (10^−7M). […]

CCCC(=O)[O-].[Na+] [sodium butyrate]
inhibition at 10 µM [1]: 22%
pIC50 ([2]; read-out: IC50 (inhibition of adhesion)): 6.40
inhibition at 10 µM ([2]; read-out: inhibition of the adhesion): 74%
